Experimental data published in ChEMBL document CHEMBL1268953, “Discovery of novel 2-aryl-4-benzoyl-imidazoles targeting the colchicines binding site in tubulin as potential anticancer agents” (J Med Chem, 2010).

Key:
DU-145 = experiment: cells; conditions: Homo sapiens, DU-145, 48 h
Description: Cytotoxicity against human DU145 cells after 48 hrs by sulforhodamine B assay

[1] = Cytotoxicity against mouse B16-F1 cells after 48 hrs by sulforhodamine B assay; format: functional, cell-based
LNCaP = experiment: Cytotoxicity against human LNCAP cells after 48 hrs by sulforhodamine B assay; format: functional, cell-based
[2] = Cytotoxicity against human WM164 cells after 48 hrs by sulforhodamine B assay; format: functional, cell-based
A-375 = experiment: Cytotoxicity against human A375 cells after 48 hrs by sulforhodamine B assay; format: functional, cell-based
PPC-1 = experiment: Cytotoxicity against human PPC1 cells after 48 hrs by sulforhodamine B assay; format: functional, cell-based
PC-3 = experiment: cells; conditions: Homo sapiens, PC-3, 48 h
Description: Cytotoxicity against human PC3 cells after 48 hrs by sulforhodamine B assay

| Compound | IC50 (DU-145) | IC50 ([1]; Mus musculus, B16-F1, 48 h) | IC50 (LNCaP) | IC50 ([2]; Homo sapiens, WM164, 48 h) | IC50 (A-375; Homo sapiens, A-375, 48 h) | IC50 (PPC-1; Homo sapiens, PPC-1, 48 h) | IC50 (PC-3) | IC50 ([1]; b16-f1) | IC50 ([2]; wm164) | IC50 (A-375; a-375) | IC50 (PPC-1; ppc-1) |
| --- | --- | --- | --- | --- | --- | --- | --- | --- | --- | --- | --- |
| COc1cc(C(=O)c2cnc(-c3cc(OC)c(OC)c(OC)c3)n2S(=O)(=O)c2ccccc2)cc(OC)c1OC | > 10 µM | > 10 µM | > 10 µM | > 10 µM | > 10 µM | > 10 µM | > 10 µM | – | – | – | – |
| COc1cc(OC)cc(C(=O)c2c[nH]c(-c3ccccc3)n2)c1 | 2.6 µM | 5.4 µM | 3.6 µM | – | 2.8 µM | 2.1 µM | 3.2 µM | – | – | – | – |
| Cc1ccc(-c2nc(C(=O)c3ccc(F)cc3)c[nH]2)cc1 | – | – | – | – | – | – | – | 0.297 µM | 0.112 µM | 0.108 µM | – |
| COc1cc(C(=O)c2c[nH]c(-c3ccc(F)cc3)n2)cc(OC)c1OC | 0.132 µM | 0.32 µM | 0.098 µM | 0.073 µM | 0.205 µM | 0.081 µM | 0.169 µM | – | – | – | – |
| O=C(c1cccc(F)c1)c1c[nH]c(-c2ccccc2)n1 | > 10 µM | > 10 µM | > 10 µM | > 10 µM | > 10 µM | > 10 µM | > 10 µM | – | – | – | – |
| COc1cc(C(=O)c2c[nH]c(-c3ccc(O)cc3)n2)cc(OC)c1OC | – | 2.4 µM | – | 1.8 µM | 1.6 µM | – | – | – | – | – | – |
| COc1cc(C(=O)c2c[nH]c(-c3cc(OC)c(OC)c(OC)c3)n2)cc(OC)c1OC | > 10 µM | > 10 µM | > 10 µM | > 10 µM | 4.8 µM | > 10 µM | > 10 µM | – | – | – | – |
| O=C(c1ccc(F)cc1)c1cnc(-c2ccccc2)n1S(=O)(=O)c1ccccc1 | 0.846 µM | 0.946 µM | 0.573 µM | 0.596 µM | 0.63 µM | 0.575 µM | 2.23 µM | – | – | – | – |
| COc1ccc(-c2nc(C(=O)c3ccc(F)cc3)c[nH]2)cc1OC | 10 µM | 4.21 µM | 2.53 µM | 1.4 µM | – | 2.17 µM | 10 µM | – | – | – | – |
| O=S(=O)(c1ccccc1)n1ccnc1-c1ccccc1 | > 10 µM | > 10 µM | > 10 µM | > 10 µM | > 10 µM | > 10 µM | > 10 µM | – | – | – | – |
| Cc1cccc(C(=O)c2c[nH]c(-c3ccccc3)n2)c1 | > 10 µM | > 10 µM | > 10 µM | > 10 µM | > 10 µM | > 10 µM | > 10 µM | – | – | – | – |
| O=C(c1ccc(F)cc1)c1c[nH]c(-c2ccc(OCc3ccccc3)cc2)n1 | 0.06 µM | 0.117 µM | 0.044 µM | 0.09 µM | 0.093 µM | 0.043 µM | 0.079 µM | – | – | – | – |
| COc1ccc(-c2ncc(C(=O)c3cc(OC)c(OC)c(OC)c3)n2S(=O)(=O)c2ccccc2)cc1OC | 0.144 µM | 0.97 µM | 0.114 µM | 0.139 µM | 0.192 µM | – | 0.197 µM | – | – | – | – |
| COc1cc(C(=O)c2c[nH]c(-c3ccccc3)n2)cc(OC)c1OC | 0.2 µM | 0.12 µM | 0.15 µM | 0.1 µM | 0.16 µM | 0.13 µM | 0.29 µM | – | – | – | – |
| COc1cc(C(=O)c2cnc(-c3ccc(N(C)C)cc3)n2S(=O)(=O)c2ccccc2)cc(OC)c1OC | 0.099 µM | 1.2 µM | 0.062 µM | 0.308 µM | 0.162 µM | – | 0.093 µM | – | – | – | – |
| O=[N+]([O-])c1ccc(-c2nccn2S(=O)(=O)c2ccccc2)cc1 | > 10 µM | > 10 µM | > 10 µM | > 10 µM | > 10 µM | > 10 µM | > 10 µM | – | – | – | – |
| Cc1ccc(-c2ncc(C(=O)c3ccc(F)cc3)n2S(=O)(=O)c2ccccc2)cc1 | 0.08 µM | 0.287 µM | 0.055 µM | 0.107 µM | – | 0.057 µM | 0.08 µM | – | – | – | – |
| O=C(c1cc(O)c(O)c(O)c1)c1c[nH]c(-c2ccc(O)c(O)c2)n1 | > 10 µM | > 10 µM | > 10 µM | > 10 µM | > 10 µM | > 10 µM | > 10 µM | – | – | – | – |
| O=C(c1cccc(F)c1)c1cnc(-c2ccccc2)n1S(=O)(=O)c1ccccc1 | > 10 µM | > 10 µM | > 10 µM | > 10 µM | > 10 µM | > 10 µM | > 10 µM | – | – | – | – |
| COc1ccc(C(=O)c2cnc(-c3ccccc3)n2S(=O)(=O)c2ccccc2)cc1 | > 10 µM | > 10 µM | > 10 µM | > 10 µM | > 10 µM | > 10 µM | > 10 µM | – | – | – | – |
| COc1cc(C(=O)c2c[nH]c(-c3ccc(Cl)cc3)n2)cc(OC)c1OC | 0.036 µM | 0.168 µM | 0.024 µM | – | 0.043 µM | 0.026 µM | 0.035 µM | – | – | – | – |
| Cc1ccc(C(=O)c2cnc(-c3ccccc3)n2S(=O)(=O)c2ccccc2)cc1 | > 10 µM | > 10 µM | > 10 µM | > 10 µM | > 10 µM | > 10 µM | > 10 µM | – | – | – | – |

| Compound | IC50 (DU-145) | IC50 ([1]; Mus musculus, B16-F1, 48 h) | IC50 (LNCaP) | IC50 ([2]; Homo sapiens, WM164, 48 h) | IC50 (A-375; Homo sapiens, A-375, 48 h) | IC50 (PPC-1; Homo sapiens, PPC-1, 48 h) | IC50 (PC-3) | IC50 ([1]; b16-f1) | IC50 ([2]; wm164) | IC50 (A-375; a-375) | IC50 (PPC-1; ppc-1) |
| --- | --- | --- | --- | --- | --- | --- | --- | --- | --- | --- | --- |
| O=C(c1cc(O)c(O)c(O)c1)c1c[nH]c(-c2ccc(Cl)cc2)n1 | 10 µM | 1.81 µM | 10 µM | 2.1 µM | 3.9 µM | > 10 µM | 10 µM | – | – | – | – |
| COc1cc(C(=O)c2c[nH]c(-c3ccc(C(F)(F)F)cc3)n2)cc(OC)c1OC | 0.174 µM | 0.468 µM | 0.134 µM | – | 0.163 µM | 0.11 µM | 0.127 µM | – | – | – | – |
| COc1ccc(C(=O)n2ccnc2-c2ccccc2)cc1 | > 10 µM | > 10 µM | > 10 µM | > 10 µM | > 10 µM | > 10 µM | > 10 µM | – | – | – | – |
| Cc1ccc(C(=O)c2c[nH]c(-c3ccccc3)n2)cc1 | > 10 µM | > 10 µM | > 10 µM | > 10 µM | > 10 µM | > 10 µM | > 10 µM | – | – | – | – |
| O=C(c1cc(O)c(O)c(O)c1)c1c[nH]c(-c2cc(O)c(O)c(O)c2)n1 | > 10 µM | > 10 µM | > 10 µM | > 10 µM | > 10 µM | > 10 µM | > 10 µM | – | – | – | – |
| COc1ccc(C(=O)c2c[nH]c(-c3ccccc3)n2)cc1OC | > 10 µM | > 10 µM | > 10 µM | > 10 µM | > 10 µM | > 10 µM | > 10 µM | – | – | – | – |
| COc1ccc(C(=O)c2c[nH]c(-c3ccccc3)n2)cc1 | > 10 µM | > 10 µM | > 10 µM | > 10 µM | > 10 µM | > 10 µM | > 10 µM | – | – | – | – |
| CN(C)c1ccc(-c2ncc(C(=O)c3ccc(F)cc3)n2S(=O)(=O)c2ccccc2)cc1 | 0.074 µM | 0.242 µM | 0.056 µM | 0.056 µM | 0.055 µM | 0.048 µM | 0.083 µM | – | – | – | – |
| COc1ccc(-c2ncc(C(=O)c3ccc(F)cc3)n2S(=O)(=O)c2ccccc2)cc1OC | 3.31 µM | 2 µM | 1.92 µM | 1.4 µM | 0.96 µM | 1.44 µM | 10 µM | – | – | – | – |
| O=S(=O)(c1ccccc1)n1ccnc1-c1ccc(OCc2ccccc2)cc1 | > 10 µM | > 10 µM | > 10 µM | > 10 µM | > 10 µM | > 10 µM | > 10 µM | – | – | – | – |
| COc1ccc(-c2nc(C(=O)c3cc(OC)c(OC)c(OC)c3)c[nH]2)cc1OC | – | 1.4 µM | – | 0.191 µM | – | – | – | – | – | – | – |
| COc1cc(C(=O)n2ccnc2-c2ccccc2)cc(OC)c1OC | > 10 µM | > 10 µM | > 10 µM | > 10 µM | > 10 µM | > 10 µM | > 10 µM | – | – | – | – |
| COc1cc(C(=O)c2c[nH]c(-c3ccc(C)cc3)n2)cc(OC)c1OC | – | 0.046 µM | – | 0.008 µM | – | – | – | – | – | – | 0.011 µM |
| COc1cc(C(=O)c2cnc(-c3ccccc3C(F)(F)F)n2S(=O)(=O)c2ccccc2)cc(OC)c1OC | > 10 µM | > 10 µM | > 10 µM | > 10 µM | > 10 µM | > 10 µM | > 10 µM | – | – | – | – |
| COc1ccc(-c2nc(C(=O)c3cc(OC)c(OC)c(OC)c3)c[nH]2)cc1 | 0.048 µM | 0.108 µM | 0.031 µM | – | – | 0.034 µM | 0.045 µM | – | – | – | – |
| O=C(c1ccc(F)cc1)c1c[nH]c(-c2ccc(O)cc2)n1 | > 10 µM | > 10 µM | 10 µM | > 10 µM | – | > 10 µM | > 10 µM | – | – | – | – |
| COc1cc(C(=O)c2c[nH]c(-c3ccc(OCc4ccccc4)cc3)n2)cc(OC)c1OC | 10 µM | – | 2.79 µM | 5.5 µM | 5.2 µM | 2.84 µM | 10 µM | – | – | – | – |
| COc1cccc(C(=O)c2c[nH]c(-c3ccccc3)n2)c1 | > 10 µM | > 10 µM | > 10 µM | > 10 µM | > 10 µM | > 10 µM | > 10 µM | – | – | – | – |
| O=C(c1ccc(F)cc1)c1cnc(-c2ccc(Cl)cc2)n1S(=O)(=O)c1ccccc1 | 0.064 µM | 0.107 µM | 0.048 µM | 0.07 µM | 0.088 µM | 0.054 µM | 0.076 µM | – | – | – | – |
| O=C(c1ccc(F)cc1)c1c[nH]c(-c2ccccc2)n1 | 0.85 µM | 0.93 µM | 0.61 µM | – | – | 0.57 µM | 2.1 µM | – | – | – | – |
| CN(C)c1ccc(-c2nc(C(=O)c3ccc(F)cc3)c[nH]2)cc1 | – | – | 0.057 µM | 0.062 µM | – | 0.045 µM | 0.081 µM | – | – | – | – |
